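Assay format: 96-well plates, 48-hour exposure. GI50 is the concentration that inhibits growth by half.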 Calls of active or inactive are those of the source. Rule as the data show it: active = GI50 up to about 1.1 µM and inactive = higher.
Legend:
Assay in all cases: NCI-60 cell line screen, 48 h
NCI-H23 = tested on: NCI-H23
K562 = tested on: K562
MDA-MB-231 = tested on: MDA-MB-231
OVCAR-4 = tested on: OVCAR-4
LOX IMVI = tested on: LOX IMVI
OVCAR-3 = tested on: OVCAR-3
HCT-15 = tested on: HCT-15
U-251 = tested on: U-251
OVCAR-5 = tested on: OVCAR-5
PC-3 = tested on: PC-3
MDA-N = tested on: MDA-N
SW-620 = tested on: SW-620
CAKI-1 = tested on: CAKI-1
UACC-62 = tested on: UACC-62
SK-MEL-5 = tested on: SK-MEL-5
HOP-92 = tested on: HOP-92
SN12C = tested on: SN12C
HCT-116 = tested on: HCT-116
DU-145 = tested on: DU-145

Compound	GI50 (NCI-H23)	GI50 (K562)	GI50 (MDA-MB-231)	GI50 (OVCAR-4)	GI50 (LOX IMVI)	GI50 (OVCAR-3)	GI50 (HCT-15)	GI50 (U-251)	GI50 (OVCAR-5)	GI50 (PC-3)	GI50 (MDA-N)	GI50 (SW-620)	GI50 (CAKI-1)	GI50 (UACC-62)	GI50 (SK-MEL-5)	GI50 (HOP-92)	GI50 (SN12C)	GI50 (HCT-116)	GI50 (DU-145)
Cc1ccc(Nc2cc(=O)[nH]c(=O)[nH]2)cc1CS	> 100 µM (inactive)	> 100 µM (inactive)	> 100 µM (inactive)	> 100 µM (inactive)	> 100 µM (inactive)	> 100 µM (inactive)	> 100 µM	> 100 µM (inactive)	> 100 µM (inactive)	> 100 µM (inactive)	> 100 µM (inactive)	> 100 µM (inactive)	> 100 µM (inactive)	> 100 µM (inactive)	> 100 µM (inactive)	> 100 µM (inactive)	> 100 µM (inactive)	> 100 µM (inactive)	–
c1ccc(/N=C(/Nc2ccccc2)N2CCCCC2)cc1	> 100 µM (inactive)	40 µM (inactive)	–	> 100 µM (inactive)	40.3 µM (inactive)	> 100 µM (inactive)	> 100 µM	> 100 µM (inactive)	> 100 µM (inactive)	80.2 µM (inactive)	43.3 µM (inactive)	> 100 µM (inactive)	> 100 µM (inactive)	77.4 µM (inactive)	> 10 µM (inactive)	92 µM (inactive)	> 100 µM (inactive)	38.6 µM (inactive)	> 10 µM (inactive)
C[C@]12CC[C@H]3[C@@H](CCC4=C/C(=N/OCCN5CCCCC5)CC[C@@]43C)[C@@H]1CC[C@@H]2O	13.7 µM (inactive)	2.75 µM (inactive)	22.2 µM (inactive)	13.9 µM (inactive)	11 µM (inactive)	16.3 µM (inactive)	8.04 µM	13.3 µM (inactive)	16.1 µM (inactive)	16.2 µM (inactive)	15 µM (inactive)	13.9 µM (inactive)	28.8 µM (inactive)	> 10 µM (inactive)	8.63 µM (inactive)	–	17.4 µM (inactive)	19.3 µM (inactive)	21.9 µM (inactive)
O=[N+]([O-])c1ccc(Cl)cc1N/N=C/c1cccs1	> 100 µM (inactive)	> 100 µM (inactive)	> 100 µM (inactive)	> 100 µM (inactive)	–	> 100 µM (inactive)	> 100 µM	> 100 µM (inactive)	–	> 100 µM (inactive)	> 100 µM (inactive)	> 100 µM (inactive)	> 100 µM (inactive)	> 100 µM (inactive)	> 100 µM (inactive)	–	> 100 µM (inactive)	> 100 µM (inactive)	> 100 µM (inactive)
N=C(N)N/N=C/c1c(-c2ccc(Cl)cc2)nc2n1CCS2	> 10 µM (inactive)	2.98 µM (inactive)	–	15.3 µM (inactive)	4.49 µM (inactive)	8.18 µM (inactive)	14.3 µM	12.9 µM (inactive)	15.1 µM (inactive)	4.14 µM (inactive)	11 µM (inactive)	5.89 µM (inactive)	14.8 µM (inactive)	11.9 µM (inactive)	3.32 µM (inactive)	10.7 µM (inactive)	14.3 µM (inactive)	4.25 µM (inactive)	12.8 µM (inactive)
CCc1n[nH]c(=O)n1N	> 100 µM (inactive)	> 100 µM (inactive)	> 100 µM (inactive)	> 100 µM (inactive)	> 100 µM (inactive)	> 100 µM (inactive)	> 100 µM	> 100 µM (inactive)	> 100 µM (inactive)	> 100 µM (inactive)	–	> 100 µM (inactive)	> 100 µM (inactive)	> 100 µM (inactive)	> 100 µM (inactive)	> 100 µM (inactive)	> 100 µM (inactive)	> 100 µM (inactive)	> 100 µM (inactive)
Cc1cc2nn(C3CCCCO3)nc2cc1C (centres undefined)	> 100 µM (inactive)	> 100 µM (inactive)	> 100 µM (inactive)	> 100 µM (inactive)	–	> 100 µM (inactive)	> 100 µM	> 100 µM (inactive)	> 100 µM (inactive)	> 100 µM (inactive)	> 100 µM (inactive)	–	> 100 µM (inactive)	> 100 µM (inactive)	> 100 µM (inactive)	–	> 100 µM (inactive)	> 100 µM (inactive)	> 100 µM (inactive)
C=CC/C=C/Cc1csc(C(C)(C)C(O)C/C=C/C(=C)CCNC(=O)OC)n1 (centres undefined)	0.245 µM (active)	0.845 µM (active)	–	> 57.3 µM (inactive)	44.6 µM (inactive)	24.8 µM (inactive)	44.1 µM	74.5 µM (inactive)	> 100 µM (inactive)	> 100 µM (inactive)	45.8 µM (inactive)	26.7 µM (inactive)	> 67 µM (inactive)	44.4 µM (inactive)	1.17 µM (inactive)	20.6 µM (inactive)	> 100 µM (inactive)	0.679 µM (active)	> 100 µM (inactive)
COc1cc2c(cc1OCCCCOc1cc(-c3ccc(F)cc3)nc(C)n1)N=C[C@@H]1CCCN1C2=O	0.468 µM (active)	0.267 µM (active)	1.04 µM (active)	0.26 µM (active)	0.166 µM (active)	0.336 µM (active)	0.701 µM	0.2 µM (active)	0.272 µM (active)	0.759 µM (active)	–	0.855 µM (active)	0.313 µM (active)	0.378 µM (active)	0.593 µM (active)	0.443 µM (active)	0.796 µM (active)	0.838 µM (active)	0.225 µM (active)
NCCCNCCCCN1CCOC1=O	> 100 µM (inactive)	> 100 µM (inactive)	> 100 µM (inactive)	–	> 100 µM (inactive)	> 100 µM (inactive)	> 100 µM	> 100 µM (inactive)	> 100 µM (inactive)	> 100 µM (inactive)	> 100 µM (inactive)	> 100 µM (inactive)	> 100 µM (inactive)	> 100 µM (inactive)	> 100 µM (inactive)	–	> 100 µM (inactive)	> 100 µM (inactive)	> 100 µM (inactive)
O=C1NI(C#Cc2ccccc2)c2ccccc21	> 100 µM (inactive)	> 100 µM (inactive)	> 100 µM (inactive)	53 µM (inactive)	> 100 µM (inactive)	> 100 µM (inactive)	> 100 µM	60.3 µM (inactive)	–	19 µM (inactive)	> 100 µM (inactive)	> 100 µM (inactive)	> 100 µM (inactive)	> 100 µM (inactive)	> 100 µM (inactive)	–	> 100 µM (inactive)	> 100 µM (inactive)	> 100 µM (inactive)
COc1cc(/C=C2/C[C@H]3[C@@H]4CCC5=CC(=O)CC[C@]5(C)[C@H]4CC[C@]3(C)NC2=O)cc(OC)c1OC	21.3 µM (inactive)	–	19.7 µM (inactive)	39.4 µM (inactive)	–	43.7 µM (inactive)	21.5 µM	19.5 µM (inactive)	13.1 µM (inactive)	21.1 µM (inactive)	26.4 µM (inactive)	36.7 µM (inactive)	25.9 µM (inactive)	23.1 µM (inactive)	11.9 µM (inactive)	11.2 µM (inactive)	22.1 µM (inactive)	26.2 µM (inactive)	21 µM (inactive)
